Assay results taken from US20070049593A1 (priority 2004, published 2007).
Structures can show the parent of a compound that is named as a salt. Where two headings read alike, the source gives them in different places.

Target: T1, HCV polymerase (Hepatitis C virus genotype 1b, UniProt P26663)
T1 construct: a region encoding NS5B (J Virol 1991 March, 65(3), 1105-13, 544 amino acids after deletion of 47 amino acids on the C-terminal); 6xHis (C); made in house; host or cells: Escherichia coli
Assay: biochemical
Parameters: species or system HCV BK strain
Summary of the method: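 His-tagged NS5B (BK strain, 47-aa C-terminal deletion, E. coli-expressed) at 0.5 μg/ml copied 5 μg/ml run-off RNA bearing the HCV 3′ UTR with 2 μM UTP plus [3H]UTP, 50 μM ATP/GTP, in pH 7.5 Tris with 5 mM MgCl2, 25 °C, 90 min. TCA-precipitated RNA was counted and IC50 calculated.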

T1 sequence (P26663 2420-2963): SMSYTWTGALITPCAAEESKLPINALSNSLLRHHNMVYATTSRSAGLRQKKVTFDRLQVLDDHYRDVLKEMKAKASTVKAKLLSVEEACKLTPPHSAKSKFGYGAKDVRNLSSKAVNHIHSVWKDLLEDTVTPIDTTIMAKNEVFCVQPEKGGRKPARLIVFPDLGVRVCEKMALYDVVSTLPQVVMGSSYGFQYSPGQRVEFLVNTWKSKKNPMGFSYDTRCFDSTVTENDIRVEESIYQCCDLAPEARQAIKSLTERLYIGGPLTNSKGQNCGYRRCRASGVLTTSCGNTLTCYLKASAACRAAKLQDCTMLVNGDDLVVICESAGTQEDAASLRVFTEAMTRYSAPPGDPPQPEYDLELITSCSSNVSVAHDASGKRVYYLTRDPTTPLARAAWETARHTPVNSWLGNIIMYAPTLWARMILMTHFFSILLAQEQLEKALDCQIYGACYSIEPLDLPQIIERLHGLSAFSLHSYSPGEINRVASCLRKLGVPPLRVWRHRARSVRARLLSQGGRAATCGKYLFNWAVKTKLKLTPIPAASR

SMILES	IC50 [nM]	IC50 (25° C., 90 min, [5,6-3H]UTP incorporation into RNA, read-out: HCV polymerase inhibitory activity IC50) [nM]
Cc1ccc2c(c1)N(CCN1CCC[C@@H](CCO)C1)CCn1c-2c(C2CCCCC2)c2ccc(C(=O)O)cc21 [Example 1-494, 13-cyclohexyl-5-{2-[(S)-3-(2-hydroxyethyl)piperidin-1-yl)ethyl}-3-methyl-6,7-dihydro-5H-benzo[5,6][1,4]diazepino[7,1-a]indole-10-carboxylic acid dihydrochloride]	< 100	–
O=C(O)c1ccc2c(c1)N(CCN1CCCCC1)CCn1c-2c(C2CCCCC2)c2ccc(C(=O)O)cc21 [Example 1-495, 13-cyclohexyl-5-[2-(piperidin-1-yl)ethyl]-6,7-dihydro-5H-benzo[5,6][1,4]diazepino[7,1-a]indole-3,10-dicarboxylic acid monohydrochloride]	< 100	–
CN1CCn2c(c(C3CCCCC3)c3ccc(C(=O)O)cc32)-c2ccc(OCCCN3CCCCC3)cc21 [Example 1-496, 13-cyclohexyl-5-methyl-3-[3-(piperidin-1-yl)propoxy]-6,7-dihydro-5H-benzo[5,6][1,4]diazepino[7,1-a]indole-10-carboxylic acid dihydrochloride]	< 100	–
O=C(O)c1ccc2c(C3CCCCC3)c3n(c2c1)CCN(CCN1CCC[C@@H](COc2ccccc2)C1)c1ccccc1-3 [Example 1-497, 13-cyclohexyl-5-[2-((R)-3-phenoxymethylpiperidin-1-yl)ethyl]-6,7-dihydro-5H-benzo[5,6][1,4]diazepino[7,1-a]indole-10-carboxylic acid dihydrochloride]	< 100	–
CCOc1ccc2c(c1)N(CCN1CCCCCCC1)CCn1c-2c(C2CCCCC2)c2ccc(C(=O)O)cc21 [Example 1-498, 5-[2-(azocan-1-yl)ethyl]-13-cyclohexyl-3-ethoxy-6,7-dihydro-5H-benzo[5,6][1,4]diazepino[7,1-a]indole-10-carboxylic acid monohydrochloride]	–	< 100
CCOc1ccc2c(c1)N(CCN1CCC[C@@H](COC)C1)CCn1c-2c(C2CCCCC2)c2ccc(C(=O)O)cc21 [Example 1-499, 13-cyclohexyl-3-ethoxy-5-[2-((R)-3-methoxymethylpiperidin-1-yl)ethyl]-6,7-dihydro-5H-benzo[5,6][1,4]diazepino[7,1-a]indole-10-carboxylic acid dihydrochloride]	< 100	–
CCOc1ccc2c(c1)N(CCN1CCCOCC1)CCn1c-2c(C2CCCCC2)c2ccc(C(=O)O)cc21 [Example 1-500, 13-cyclohexyl-3-ethoxy-5-[2-(1,4-oxazepan-4-yl)ethyl]-6,7-dihydro-5H-benzo[5,6][1,4]diazepino[7,1-a]indole-10-carboxylic acid dihydrochloride]	< 100	–
CCOc1ccc2c(c1)N(CCN1CCC(CCOC)CC1)CCn1c-2c(C2CCCCC2)c2ccc(C(=O)O)cc21 [Example 1-501, 13-cyclohexyl-3-ethoxy-5-{2-[4-(2-methoxyethyl)piperidin-1-yl]ethyl}-6,7-dihydro-5H-benzo[5,6][1,4]diazepino[7,1-a]indole-10-carboxylic acid dihydrochloride]	< 100	–
COCCC1CCN(CCN2CCn3c(c(C4CCCCC4)c4ccc(C(=O)O)cc43)-c3ccc(C)cc32)CC1 [Example 1-502, 13-cyclohexyl-5-{2-[4-(2-methoxyethyl)piperidin-1-yl]ethyl}-3-methyl-6,7-dihydro-5H-benzo[5,6][1,4]diazepino[7,1-a]indole-10-carboxylic acid dihydrochloride]	< 100	–
CCN(CC)CC(O)CN1CCn2c(c(C3CCCCC3)c3ccc(C(=O)O)cc32)-c2ccc(Cl)cc21 (centres unmarked) [Example 1-503, 3-chloro-13-cyclohexyl-5-(3-diethylamino-2-hydroxypropyl)-6,7-dihydro-5H-benzo[5,6][1,4]diazepino[7,1-a]indole-10-carboxylic acid dihydrochloride]	< 100	–
CC(=O)N1CCCN(CCN2CCn3c(c(C4CCCCC4)c4ccc(C(=O)O)cc43)-c3ccc(C)cc32)CC1 [Example 1-504, 5-[2-(4-acetyl-1,4-diazepan-1-yl)ethyl]-13-cyclohexyl-3-methyl-6,7-dihydro-5H-benzo[5,6][1,4]diazepino[7,1-a]indole-10-carboxylic acid dihydrochloride]	< 100	–
Cc1ccc2c(c1)NCCn1c-2c(C2CCCCC2)c2ccc(S(N)(=O)=O)cc21 [Example 1-506, 13-cyclohexyl-3-methyl-6,7-dihydro-5H-benzo[5,6][1,4]diazepino[7,1-a]indole-10-sulfonamide]	100 to 1000	–
Cc1ccc2c(c1)N(CCN1CCCCC1)CCn1c-2c(C2CCCCC2)c2ccc(S(N)(=O)=O)cc21 [Example 1-507, 13-cyclohexyl-3-methyl-5-[2-(piperidin-1-yl)ethyl]-6,7-dihydro-5H-benzo[5,6][1,4]diazepino[7,1-a]indole-10-sulfonamide dihydrochloride]	100 to 1000	–
COC[C@@H]1CCCN(CCN2CCn3c(c(C4CCCCC4)c4ccc(C(=O)O)cc43)-c3ccc(OC)cc32)C1 [Example 1-508, 13-cyclohexyl-3-methoxy-5-[2-((R)-3-methoxymethylpiperidin-1-yl)ethyl]-6,7-dihydro-5H-benzo[5,6][1,4]diazepino[7,1-a]indole-10-carboxylic acid dihydrochloride]	< 100	–
COC[C@@H]1CCCN(CCN2CCn3c(c(C4CCCCC4)c4ccc(C(=O)O)cc43)-c3ccc(F)cc32)C1 [Example 1-509, 13-cyclohexyl-3-fluoro-5-[2-((R)-3-methoxymethylpiperidin-1-yl)ethyl]-6,7-dihydro-5H-benzo[5,6][1,4]diazepino[7,1-a]indole-10-carboxylic acid dihydrochloride]	< 100	–
COc1ccc2c(c1)N(CCN1CCCOCC1)CCn1c-2c(C2CCCCC2)c2ccc(C(=O)O)cc21 [Example 1-510, 13-cyclohexyl-3-methoxy-5-[2-(1,4-oxazepan-4-yl)ethyl]-6,7-dihydro-5H-benzo[5,6][1,4]diazepino[7,1-a]indole-10-carboxylic acid dihydrochloride]	< 100	–
CCN(CCCN1CCn2c(c(C3CCCCC3)c3ccc(C(=O)O)cc32)-c2ccc(C)cc21)CCOC [Example 1-511, 13-cyclohexyl-5-{3-[N-ethyl-N-(2-methoxyethyl)amino]propyl}-3-methyl-6,7-dihydro-5H-benzo[5,6][1,4]diazepino[7,1-a]indole-10-carboxylic acid dihydrochloride]	< 100	–
CCN(CCO)CCCN1CCn2c(c(C3CCCCC3)c3ccc(C(=O)O)cc32)-c2ccc(C)cc21 [Example 1-512, 13-cyclohexyl-5-{3-[N-ethyl-N-(2-hydroxyethyl)amino]propyl}-3-methyl-6,7-dihydro-5H-benzo[5,6][1,4]diazepino[7,1-a]indole-10-carboxylic acid dihydrochloride]	< 100	–
CCc1ccc2c(c1)N(CCCN(CC)CCCOC)CCn1c-2c(C2CCCCC2)c2ccc(C(=O)O)cc21 [Example 1-513, 13-cyclohexyl-5-{3-[N-ethyl-N-(3-methoxypropyl)amino]propyl}-3-ethyl-6,7-dihydro-5H-benzo[5,6][1,4]diazepino[7,1-a]indole-10-carboxylic acid dihydrochloride]	< 100	–
CCOCC[C@@H]1CCCN(CCN2CCn3c(c(C4CCCCC4)c4ccc(C(=O)O)cc43)-c3ccc(C)cc32)C1 [Example 1-514, 13-cyclohexyl-5-{2-[(S)-3-(2-ethoxyethyl)piperidin-1-yl]ethyl}-3-methyl-6,7-dihydro-5H-benzo[5,6][1,4]diazepino[7,1-a]indole-10-carboxylic acid dihydrochloride]	< 100	–
CCOCC[C@@H]1CCCN(CCN2CCn3c(c(C4CCCCC4)c4ccc(C(=O)O)cc43)-c3ccc(OCC)cc32)C1 [Example 1-515, 13-cyclohexyl-3-ethoxy-5-{2-[(S)-3-(2-ethoxyethyl)piperidin-1-yl]ethyl}-6,7-dihydro-5H-benzo[5,6][1,4]diazepino[7,1-a]indole-10-carboxylic acid dihydrochloride]	< 100	–
Cc1ccc2c(c1)N(C)CCn1c-2c(C2CCCCC2)c2ccc(S(N)(=O)=O)cc21 [Example 1-517, 13-cyclohexyl-3,5-dimethyl-6,7-dihydro-5H-benzo[5,6][1,4]diazepino[7,1-a]indole-10-sulfonamide]	100 to 1000	–
COC(=O)N1CCCN(CCN2CCn3c(c(C4CCCCC4)c4ccc(C(=O)O)cc43)-c3ccc(C)cc32)CC1 [Example 1-518, 13-cyclohexyl-5-[2-(4-methoxycarbonyl-1,4-diazepan-1-yl)ethyl]-3-methyl-6,7-dihydro-5H-benzo[5,6][1,4]diazepino[7,1-a]indole-10-carboxylic acid dihydrochloride]	< 100	–
O=C1CCN(CCN2CCn3c(c(C4CCCCC4)c4ccc(C(=O)O)cc43)-c3ccccc32)CCN1 [Example 1-519, 13-cyclohexyl-5-[2-(5-oxo-1,4-diazepan-1-yl)ethyl]-6,7-dihydro-5H-benzo[5,6][1,4]diazepino[7,1-a]indole-10-carboxylic acid dihydrochloride]	< 100	–
CC(=O)NS(=O)(=O)c1ccc2c(C3CCCCC3)c3n(c2c1)CCN(CCN1CCCCC1)c1cc(C)ccc1-3 [Example 1-520, N-acetyl-13-cyclohexyl-3-methyl-5-[2-(piperidin-1-yl)ethyl]-6,7-dihydro-5H-benzo[5,6][1,4]diazepino[7,1-a]indole-10-sulfonamide dihydrochloride]	< 100	–
Cc1ccc2c(c1)N(CCCN(C(C)C)C(C)C)CCn1c-2c(C2CCCCC2)c2ccc(C(=O)O)cc21 [Example 1-521, 13-cyclohexyl-5-(3-diisopropylaminopropyl)-3-methyl-6,7-dihydro-5H-benzo[5,6][1,4]diazepino[7,1-a]indole-10-carboxylic acid dihydrochloride]	< 100	–
